Patent US10028992B2, “Methods of treating muscular dystrophy” (BOARD OF REGENTS OF THE NEVADA SYSTEM OF HIGHER EDUCATION …, priority 2012, dated 2018)
“And” between values parts separate entries of the source, which are not always exact repeats. Equal values may be shown once.

System: α7 integrin promoter
Assay: muscle cell-based assay: α7βgal+/− myoblasts/myotubes, LacZ reporter, β-galactosidase cleavage of FDG
Set-up: species or system mouse; Results in α7+/− β-galactosidase assay: scale not given here
Settings: for Results in α7+/− β-galactosidase assay / Result in α7+/− β-galactosidase assay: Myoblasts; for Results in a α7+/− β-galactosidase assay, Myotubes, 0.5 uM: compound at 0.5 uM; for Results in a α7+/− β-galactosidase assay, Myotubes, 1 uM: compound at 1 uM; for Results in a α7+/− β-galactosidase assay, Myotubes, 5 uM: compound at 5 uM; for Results in a α7+/− β-galactosidase assay, Myotubes, 10 uM: compound at 10 uM; for Results in a α7+/− β-galactosidase assay, Myotubes, 20 uM: compound at 20 uM; for Results in a α7+/− β-galactosidase assay, Myotubes, 40 uM: compound at 40 uM; for EC50: Mus musculus, given as log AC50 (negative values), read-out: Fit LogAC50 (converted); for Score: Table 12 compound data; for Fit Curve Class: curve class number, key not given; for Fit HillSlope / Fit Zero Activity [%]: curve fit; for Fit Zero Activity [%]: activity at zero concentration
Method in brief: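 Fluorescein generated from FDG by β-galactosidase reports α7 integrin promoter activity in differentiated myoblasts from α7+/− LacZ knock-in pups. Screening hits then went to dose-response, western blotting and a myostatin counterscreen.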

Row | SMILES | Results in α7+/− β-galactosidase assay (0.5 uM) | Results in α7+/− β-galactosidase assay (1 uM) | Results in α7+/− β-galactosidase assay (5 uM) | Results in α7+/− β-galactosidase assay (10 uM) | Results in α7+/− β-galactosidase assay (20 uM) | Results in α7+/− β-galactosidase assay (40 uM) | Results in a α7+/− β-galactosidase assay, Myotubes, 5 uM | also measured
1 | Cc1ccsc1CN(C)CC(=O)Cc1ccc([N+](=O)[O-])cc1Cl [drawing 681] | 0.233 | 0.3513 | −0.03377 | −0.09863 | −0.01304 | −0.0403 |  | 
2 | O=C1Nc2ccccc2/C1=C\c1ccnc2ccccc12 [drawing 318] |  |  |  |  |  |  | 0.4005 | Results in a α7+/− β-galactosidase assay, Myotubes, 0.5 uM: 0.1725; Results in a α7+/− β-galactosidase assay, Myotubes, 1 uM: 0.09552; Results in a α7+/− β-galactosidase assay, Myotubes, 10 uM: 0.4118; Results in a α7+/− β-galactosidase assay, Myotubes, 20 uM: −0.4266; Results in a α7+/− β-galactosidase assay, Myotubes, 40 uM: −0.342
3 | Cc1cccc(Cn2cnc3c(nnn3Cc3ccc(Cl)cc3)c2=O)c1 [drawing 658] | −0.04558 | 0.03537 | 0.1703 | −0.06567 | −0.2167 | −0.3491 |  | 
4 | Cc1ccc(NS(=O)(=O)c2cccc(C(=O)O)c2)cc1S(=O)(=O)N1CCOCC1 |  |  |  |  |  |  | 0.6308 and 0.5052 | 
5 | CCCCC(C(=O)NC1CCCC1)N(C(=O)c1snc(C(N)=O)c1N)c1ccc(C)cc1 (centres unmarked) [Compound 151] |  |  |  |  |  |  |  | EC50: 10 µM; Score: 42; Fit Curve Class: 2.1; Fit HillSlope: 3.132; Fit Zero Activity [%]: −26.3814%
6 | Cc1nc(O)nc(O)c1S(=O)(=O)Nc1ccc(F)cc1Cl [drawing 337] |  |  |  |  |  |  | 0.06886 | Results in a α7+/− β-galactosidase assay, Myotubes, 0.5 uM: 0.2345; Results in a α7+/− β-galactosidase assay, Myotubes, 1 uM: 0.05045; Results in a α7+/− β-galactosidase assay, Myotubes, 10 uM: 0.09509; Results in a α7+/− β-galactosidase assay, Myotubes, 20 uM: −0.05815; Results in a α7+/− β-galactosidase assay, Myotubes, 40 uM: −0.1517
7 | Cc1ccc(C(=O)N2CCN(S(=O)(=O)N3CCOCC3)CC2)cc1 [drawing 642] | 0.1086 | −0.02563 | 0.3985 | −0.06877 | −0.07784 | −0.1672 |  | 
8 | Cc1ccc(/C=C2\C(=O)Nc3ccccc32)o1 [drawing 356] |  |  |  |  |  |  | −0.1043 | Results in a α7+/− β-galactosidase assay, Myotubes, 0.5 uM: 0.09656; Results in a α7+/− β-galactosidase assay, Myotubes, 1 uM: −0.02249; Results in a α7+/− β-galactosidase assay, Myotubes, 10 uM: −0.06876; Results in a α7+/− β-galactosidase assay, Myotubes, 20 uM: −0.2369; Results in a α7+/− β-galactosidase assay, Myotubes, 40 uM: −0.336
9 | Sc1nnc(Cn2cnc3ccccc32)n1-c1ccccc1 [Compound 189] |  |  |  |  |  |  |  | EC50: 8.91 µM; Score: 42; Fit Curve Class: 2.2; Fit HillSlope: 0.8; Fit Zero Activity [%]: 8.5392%
10 | COc1c(Cl)cc(/C=C2\C(=O)Nc3ccccc32)cc1Cl [drawing 712] |  |  |  |  |  |  |  | Result in α7+/− β-galactosidase assay (0.5 uM): 0.2725; Result in α7+/− β-galactosidase assay (1 uM): 0.2417; Result in α7+/− β-galactosidase assay (5 uM): 0.01335; Result in α7+/− β-galactosidase assay (10 uM): 0.04886; Result in α7+/− β-galactosidase assay (20 uM): 0.1098; Result in α7+/− β-galactosidase assay (40 uM): −0.01132
11 | COc1ccc2c(c1)/C(=C\c1cccc(/C=C3/C(=O)Nc4ccc(OC)cc43)n1)C(=O)N2 [drawing 651] | −0.2196 | −0.4455 | −0.825 | −0.8112 | −0.9441 | −0.9511 |  | 
12 | CCC(C)C(CC)NC(=O)CSc1nnc(COc2ccc(Cl)cc2)o1 (centres unmarked) [drawing 374] |  |  |  |  |  |  | −0.09861 | Results in a α7+/− β-galactosidase assay, Myotubes, 0.5 uM: 0.09087; Results in a α7+/− β-galactosidase assay, Myotubes, 1 uM: 0.07758; Results in a α7+/− β-galactosidase assay, Myotubes, 10 uM: −0.1776; Results in a α7+/− β-galactosidase assay, Myotubes, 20 uM: −0.01998; Results in a α7+/− β-galactosidase assay, Myotubes, 40 uM: −0.2485
13 | Cc1cc([N+](=O)[O-])ccc1NC(=O)C(C)N1CCN(c2ccccn2)CC1 (centres unmarked) [drawing 601] | 0.08805 | 0.0582 | −0.01841 | −0.03065 | −0.0419 | −0.274 |  | 
14 | O=C(CNC(=O)c1cccc(F)c1)N/N=C/c1cc(Br)ccc1OCc1ccccc1 [drawing 519] | −0.00993 | 0.03356 | 0.1316 | 0.088 | −0.1376 | 0.1351 |  | 
